The test system of assay [1] is astrocytes. The assay is described as follows: Extracellular lactate quantification. The class given is cell-based, mouse. Conditions: Mus musculus, Astrocyte. How it is done:
(§1) Primary cultures of cerebrocortical astrocytes were obtained from 1-2-day-old OF1 mouse pups (Charles River Laboratories). Briefly, cortices were isolated and minced in small pieces under a dissecting microscope. The cells were incubated for 30 min at 37° C. in a solution containing 20 U/ml of papain enzyme (Worthington Biochemical), L-cysteine 1 mM (Sigma), and 10 kU/ml DNase I (Worthington Biochemical) for an enzymatic dissociation. Papain activity was stopped by the addition of fetal calf serum (FCS) to the solution, and a single-cell suspension was then obtained by mechanical dissociation, which consisted in cells trituration in a DMEM (D7777, Sigma-Aldrich) medium (supplemented with 44 mm NaHCO3, and 10 ml/L antibiotic/antimycotic solution) containing 10% FCS. The cells were seeded at an average density of 6×10^4 cells/cm^2 in poly-D-lysine-coated 96, 12 or 6-well culture plates, depending on their use, and incubated at 37° C. in a humidified atmosphere containing 5% CO2/95% air. Culture medium was renewed twice per week. Cells were stimulated and harvested between DIV14 and DIV17, when confluence and cell growth were optimal.
Secretion of L-lactate was determined in the extracellular medium of 96-well plated astrocytes after 90 min stimulation (at 37° C., in 5% CO2/95% air conditions) with the drug of interest. The stimulation medium was composed of D5030 medium (completed with D-glucose 5 mM and 44 mM sodium bicarbonate) for 90 min in concentrations ranging from 0 to 100 μM.
Briefly, 200 μl of a Glycine (Sigma)-Semicarbazide (Acros) 0.2M pH 10 buffer containing 3 mM NAD (Roche) and LDH 14 U/ml (Roche) was added to each well of a 96-well plate containing 30 μl aliquots complemented with 20 μl fresh complete D5030 medium. Samples were incubated at 37° C. for 1 h. After samples cooled down at room temperature, the fluorescence intensity (340 nm excitation/450 nm emission) that represents the amount of NADH produced was measured, and lactate concentration values were determined from a standard curve of L-lactate.
Statistical analysis consisted in ANOVA followed by Fisher LSD post-hoc test for pair-wise comparisons.
Levels of lactate secreted by astrocytes were measured in the extracellular medium at 90 min after stimulation with hits (molecules) from the CDC54K library.

The test system of assay [2] is astrocytes. The assay can be described thus: MTT viability assay. The class given is cell-based. Conditions: Mus musculus, Astrocyte; Prestwick hits; cellular toxicity, 0-200 uM, 24 h. The procedure:
as §1
For cell toxicity determination, astrocytes in 96-well plates were stimulated 24 h (37° C. 5% CO2/95% air) with a gradient ranging from 0.1 to 200 μM of tested compounds. After stimulation, 5 mg/ml thiazol blue tetrazolium bromide (MTT, Sigma-Aldrich) in warm D5030 complete medium was added to each well, and cells were incubated for 4 h at 37° C. (5% CO2). The medium was then removed by aspiration, and the reaction was stopped by the addition of 50 μl DMSO per well.
The amount of reduced MTT (formazan) solubilized in DMSO was then determined spectrophotometrically using absorbance at 570 nm (Safire 2; Tecan).
MTT cellular viability assay was performed on astrocytes exposed to molecules from the Prestwick library (Prestwick hits; concentrations ranging from 0 uM to 200 uM).
MTT cellular viability assay was performed on astrocytes exposed to CDC54K hits (concentrations ranging from 0 uM to 200 uM).

Assay [3] has as its system primary astrocytes. The assay is described as follows: High throughput screening for lactate secretion: acidification of extracellular medium (SNARF5). It is filed as cell-based, mouse. As to conditions: Mus musculus, Astrocyte, 1.5 h, 10 uM, 90 min. The procedure: as §1
Secretion of lactate in a high-throughput screening (HTS) fashion was measured indirectly through the acidification of extracellular medium. To this end, primary astrocytes grown in 96-well plates for 17 days were stimulated with the compounds as listed herein.
After washing the cells twice with stimulation medium (DMEM (D5030, Sigma), 3 mM NaHCO3 and 5 mM Glucose) at 37° C., cells were stimulated with the compounds at a final concentration of 10 uM (1% DMSO final) in 50 ul per well of stimulation medium supplemented with 10 uM of the extracellular pH sensor SNARF-5F %-(AND-6)-CAR (Life Technologies Corporation). Each compound was tested in two different plates for duplicates.
After 90 min stimulation, fluorescence was read at exc. (excitation) 480 nm/emm. (emission) 580 nm and at exc 480 nm/emm. 630 nm. The ratio of fluorescence between 630 nm and 580 emission values, which represents extracellular pH, was calculated.
In each plate, 8 wells were used for negative controls (DMSO) and 8 wells were used for positive controls (CCCP 2 uM in DMSO). Z prime values were calculated for each of the plates tested and values <0 were discarded.
The average and SD of compounds' values tested in duplicates were calculated, and compound was noted as HIT when the difference between compound's average and negative control's average was greater than three times the sum of compound's SD and negative controls' SD. Only scores greater than 40% were considered as lead hits for the CDC54K library; for the remaining libraries, all hits were considered. Scores are calculated as the % of activity compared to the positive control in each plate (which is 100%).
Primary screening hits were cherry picked on new plates and confirmed for SNARF5 effect, after having discarded those compounds that are fluorescent (exc. 480 nm/emm. 580 nm or 630 nm) before stimulation. Extracellular medium was next analyzed for extracellular lactate quantification for secondary screening.
Identification of lactate-enhancing drugs with high throughput screening (HTS) experiments on astrocytes primary cultures using extracellular pH dye (SNARF5F 5-(and 6)-carboxylic acid) for 90 min. The procedure is described in Material and Methods (2. Cell culture, 2.1. HTS for lactate secretion and 2.2. Extracellular lactate quantification).
The procedure was performed as follows: • Primary screening: acidification of the extracellular medium • Primary screening confirmation: acidification of the extracellular medium, removal of compounds with fluorescent activity at exc. 480 nm/emm. 580 nm or 630 nm. • Secondary screening: dosage of extracellular lactate

The mark [4] stands for this setting: 1.5 h, Prestwick hits, 0-100 μM, 90 min, read-out: Lactate EC50.
[5] abbreviates: Prestwick hits, activity relative to positive control CCCP 2 uM, read-out: Score.
Where [6] appears, read: Prestwick hits, relative to positive control CCCP 2 uM, read-out: HTS Score (lactate).
[7] abbreviates: Appendix II, lactate secretion, read-out: EC50.

Among the data in US12274703B2, “Compositions and methods of treatment for neurological disorders comprising a dementia” (Gliapharm SA, priority 2017, dated 2025) are EC50, IC50 and Emax values, retold here.

Structures can show the parent of a compound that is named as a salt. Where two headings read alike, the source gives them in different places.

A word on the EC50: it is the concentration needed to bring the measured effect to its halfway point. Usually IC50 stands for the midpoint of a concentration-inhibition curve. As to `N=C(N)N1CCc2ccccc2C1` [Debrisoquin sulfate], the EC50 in assay [1] (setting [4]) was found to be 2.73 µM. This compound also yielded a concentration for half-maximal inhibition (IC50) in assay [2] above 200 µM. Also, the Emax at 10 µM in assay [3] (setting [5]) and in assay [3] (setting [6]) was 23.8% throughout. As to `CC[N+](CC)(CC(=O)Nc1c(C)cccc1C)Cc1ccccc1` [Denatonium benzoate], the concentration giving a half-maximal response (EC50) in assay [1] (setting [4]) amounted to 12.2 µM. The IC50 in assay [2] is 178 µM. For the same compound, the Emax at 10 µM in assay [3] (setting [5]) and in assay [3] (setting [6]) was 11% throughout. For `C[N+]1(C)CCC(=C(c2ccccc2)c2ccccc2)CC1` [Diphemanil methylsulfate], the concentration giving a half-maximal response (EC50) in assay [1] (setting [4]) is 1.17 µM. The IC50 in assay [2] came to 13.9 µM. Further, the Emax at 10 µM in assay [3] (setting [5]) and in assay [3] (setting [6]) was 48.4% each time. Take `COC1=C(OC)C(=O)C(CCCCCCCCCCO)=C(C)C1=O` [Idebenone]: the EC50 in assay [1] (setting [4]) was 0.602 µM. The same compound registered an IC50 in assay [2] of 112 µM. Also, the Emax at 10 µM in assay [3] (setting [5]) and in assay [3] (setting [6]) was 25.9% in each case.

In the case of `CN(C)S(=O)(=O)c1cccc(C(=O)Nc2ccc(Oc3ccccc3)cc2)c1` [T5393500], the EC50 in assay [1] (setting [7]) turned out to be 3.43 µM. As for `CCC(C)NS(=O)(=O)c1ccc(Oc2ccc(C)cc2)cc1` (stereo not shown) [T5400234], the EC50 in assay [1] (setting [7]) stood at 4.64 µM. `Cc1ccc(OCCn2c(C)nc3ccccc32)cc1` [T5444083]: the EC50 in assay [1] (setting [7]) amounted to 4.59 µM. On the same count and under the same terms, the value for `O=C(Nc1ccc(F)c(F)c1)c1ccc(Cl)c(S(=O)(=O)N2CCCC2)c1` [T5450239] was 4.42 µM. As to `CCN(CC)S(=O)(=O)c1ccc(S(=O)(=O)Nc2ccc(C)cc2Cl)cc1` [T5453923], the EC50 in assay [1] (setting [7]) was 5.36 µM. On the same count and under the same terms, under `CCN1C(=O)c2cccc3c(S(=O)(=O)Nc4ccc(OC)cc4OC)ccc1c23` [T5477696] stands 5.1 µM; under `Cc1c(O)ccc2c(CN(C)CC3COc4ccccc4O3)cc(=O)oc12` (stereo not shown) [T5494352], 5.02 µM; under `CCn1c(=O)c(C)nc2cc(C(=O)N(Cc3ccc(F)cc3)C3CC3)ccc21` [T5586091], 5.36 µM. For the compound `Cc1nc2ccc(NC(=O)c3ccc4c(c3)CC(C)N4S(C)(=O)=O)cc2s1` (stereo not shown) [T5606387], the concentration giving a half-maximal response (EC50) in assay [1] (setting [7]) was determined as 4.61 µM. With `CC(Nc1ncnc2sccc12)c1ccccn1` (stereo not shown) [T5672380], the EC50 in assay [1] (setting [7]) came to 3.91 µM. Also, the Emax at 10 µM in assay [3] (Appendix I, primary screening, relative to positive control, read-out: Score) was 76.5%. With `N#Cc1ccc(S(=O)(=O)Nc2ccccc2C(=O)NCc2ccccc2)cc1` [T5673322], the EC50 in assay [1] (setting [7]) was 7.42 µM. The same measure, in the same setting: under `CCCC(=O)Nc1nc(-c2ccc3c(c2)CCO3)cs1` [T5691896] stands 5.21 µM; under `Cc1ccc(-c2csc(NC(=O)c3ccncc3)n2)cc1[N+](=O)O` [T5694329], 1.59 µM; under `CC(=O)c1c(C)[nH]c(C(=O)N(C)Cc2ccc(C)cc2C)c1C` [T5705522], 2.53 µM. Same read-out and setting: under `CC(=O)N1CCc2cc(S(=O)(=O)NCC(C)c3ccccc3)ccc21` (stereo not shown) [T5707230] stands 4.88 µM; under `COc1ccc(C(C)NC(=O)c2cc(=O)c3ccccc3o2)cc1F` (stereo not shown) [T5710343], 6.31 µM; under `CCc1ccccc1NC(=O)CN(C)c1ncnc2c1oc1ccccc12` [T5712071], 1.14 µM. Still for that read-out and setting: under `Cc1sc2nc(CSc3nc4ccccc4[nH]3)nc(N)c2c1C` [T5719257] stands 2.85 µM; under `Cc1ccc(S(=O)(=O)Nc2ccc(F)c(F)c2F)cc1[N+](=O)[O-]` [T5729557], 5.69 µM; under `CCc1ccc(S(=O)(=O)Nc2c(C)nn(C)c2C)cc1` [T5753165], 6.41 µM. As to `COc1ccccc1NC(=O)CO/N=C(/N)c1cccc(C(F)(F)F)c1` [T5770640], the EC50 in assay [1] (setting [7]) was determined as 4.86 µM.

As to `COc1cc(C)c(NC(=O)Cc2ccc(Cl)c(Cl)c2)cc1OC` [T5783794], the EC50 in assay [1] (setting [7]) stood at 6.11 µM.

On to `c1nc(NCc2ccc3c(c2)OCO3)c2sccc2n1` [T5787526], for which, in assay [1] (setting [7]), the EC50 worked out at 3.89 µM. The same measure, in the same setting: under `CC(=O)Nc1cccc(NC(=O)CSc2nc(C)c(C)n2C2CCCC2)c1` [T5788339] stands 3.9 µM; under `CCCCn1c(CN(C)Cc2ccccc2)nc2c1c(=O)n(C)c(=O)n2C` [T5788545], 3.59 µM. For the compound `c1ccc(CN2CCOCC2)c(CNc2ncnc3ccsc23)c1` [T5790476], the EC50 in assay [1] (setting [7]) is 3.98 µM. In the case of `CC(=O)c1c(C)[nH]c(C(=O)C(C)N(C)Cc2ccc3c(c2)OCO3)c1C` (stereo not shown) [T5798761], the EC50 in assay [1] (setting [7]) stood at 4.01 µM.

Regarding `COc1cccc(C(CNc2nc(C(F)(F)F)nc3ccccc23)N(C)C)c1` (stereo not shown) [T5800607], the concentration for a half-maximal effect (EC50) in assay [1] (setting [7]) is 5.87 µM. The same measure, in the same setting: the value for `Cn1nc(C(=O)Nc2ccc(Oc3ccccc3Cl)cc2)ccc1=O` [T5813085] was 4.1 µM; that for `c1ccc(Cc2ccc(OCCn3ccnc3)cc2)cc1` [T5821723] was 4.29 µM; that for `CC(C)(C)NS(=O)(=O)c1cccc(C(=O)Nc2ccncc2)c1` [T5827594] was 5.02 µM.

As to `COc1ccc(-c2csc(N3C(=O)CC4CS(=O)(=O)CC43)n2)cc1` (stereo not shown) [T5832764], the EC50 in assay [1] (setting [7]) was 4.02 µM. The same measure, in the same setting: under `O=C(CN1CCCC1c1ccc2c(c1)OCCCO2)Nc1cc(F)cc(F)c1` (stereo not shown) [T5993799] stands 8.81 µM; under `Cc1cccc(NC(=O)c2ccc(S(=O)(=O)Nc3ccccc3)cc2)n1` [T6125251], 4.56 µM; under `O=S(=O)(Nc1ccc(Cl)cc1)c1ccc(F)c(Cl)c1` [T6947848], 5.5 µM.

Regarding `O=C(Nc1ccc(S(=O)(=O)NCC2CCCO2)cc1)c1ccccc1` (stereo not shown) [Y031-0361], the EC50 in assay [1] (setting [7]) stood at 8.23 µM.

Regarding `C1CCCC(NC2=NCCCNC23CCCCC3)CC1` [Z076-0028], the EC50 in assay [1] (setting [7]) turned out to be 8.01 µM. Still for that read-out and setting: the value for `Cc1nc2ncnn2c(NC2CCCCCC2)c1C` [Z606-8287] was 4.29 µM. For `Cc1nc2ncnn2c(NCc2ccco2)c1C` [Z606-8298], the 50% effective concentration (EC50) in assay [1] (setting [7]) is 4.89 µM.

Consider `CCc1c(C)nc2ncnn2c1NC1CCCCCC1` [Z606-8351], for which the EC50 in assay [1] (setting [7]) came to 5 µM.

For the compound `CCc1c(C)nc2ncnn2c1NC1CCCCC1` [Z606-8352], the EC50 in assay [1] (setting [7]) is 4.11 µM.
